Laboratory results published in US20260297042A1, “BIARYLAMIDE DERIVATIVES AND THEIR USE AS PKMYT1 INHIBITORS” (CANCER RESEARCH TECHNOLOGY LIMITED, priority 2023, published 2026).

Experiments:
OVCAR 3 cells = assay: Cancer cell line proliferation assay, ATP-based cell viability (Cell Titre Glow), OVCAR 3 (CCNE1-amplified); settings: KYSE30 (normal CCNE1) GI50 vs. OVCAR 3 (CCNE1-amplified) GI50
Protocol: (§1) Cancer cell lines with either normal (KYSE-30) or amplified CCNE1 expression (OVCAR 3 —ovarian cancer) were evaluated for their sensitivity to PKMYT1 inhibitors using Cell Titre Glow assay (Promega G7573) as endpoint to assess cell proliferation. The luminescence signal was read on a PHERAStar FS microplate reader (BMG Labtech). Data analysis was performed using Microsoft Excel® and Gl50 (concentration that achieves 50% cell growth proliferation inhibition) estimates generated with GraphPad Prism v9.

WEE1 = target: T1, WEE1 (Homo sapiens, UniProt P30291); assay: Selectivity versus WEE1 assay (ADP-Glo enzymatic assay); format: biochemical; settings: for IC50: ADP-Glo; for PKMYT1 vs. WEE1 selectivity: fold difference in selectivity for PKMYT1 over WEE1
T1 construct: purchased Thermo Fisher PR7373A
How it was run: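 Inhibition is measured as reduced ADP production, detected by luminescence with ADP-Glo, after enzyme (15 nM) and 30 µM ATP react for 60 min at 26° C in 1% DMSO-containing HEPES buffer, pH 7.5. Data are accepted only if replicate IC50s fall within 3-fold and r2 exceeds 0.9.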

Human PKMYT1 = target: T2, Human PKMYT1 (Homo sapiens, UniProt Q99640); assay: PKMYT1 biochemical ADP-Glo enzymatic assay; settings: ADP-Glo
T2 construct: Human PKMYT1 75-362 was cloned as a TEV cleavable 6xHis fusion; 6xHis (TEV cleavable) (cleaved yes); made in house; host or cells: bacterial cells
T2 sequence (Q99640 75-362): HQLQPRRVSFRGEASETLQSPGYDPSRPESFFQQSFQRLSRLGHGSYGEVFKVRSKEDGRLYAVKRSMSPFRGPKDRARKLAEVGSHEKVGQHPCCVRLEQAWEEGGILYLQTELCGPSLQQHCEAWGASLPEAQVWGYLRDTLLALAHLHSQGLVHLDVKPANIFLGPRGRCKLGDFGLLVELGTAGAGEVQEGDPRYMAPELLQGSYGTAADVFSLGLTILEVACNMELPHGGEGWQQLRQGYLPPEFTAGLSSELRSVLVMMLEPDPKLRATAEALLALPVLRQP
How it was run: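 IC50 derived from luminescence (ADP-Glo Max) after PKMYT1 kinase domain, 15 nM, turned over 500 µM ATP for 60 min at 26 °C. Buffer contained 10 mM MgCl2, 1 mM EGTA and 0.01% Brij-35 at pH 7.5.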

KYSE-30 cells = assay: Cancer cell line proliferation assay, ATP-based cell viability (Cell Titre Glow), KYSE-30 (normal CCNE1); settings: Homo sapiens, KYSE-30 cells (normal CCNE1), concentration that achieves 50% cell growth proliferation inhibition, read-out: KYSE30 Gl50
Protocol: as §1

[1] = PKMYT1 kinase domain 15 nM, banded values
[2] = 15 nM WEE1, 60 minutes at 26° C., banded
[3] = banded, ">N" = at least in this band but could be higher
[4] = 15 nM PKMYT1 kinase domain, 500 µM ATP, 60 minutes at 26° C., banded

T1 sequence (P30291 whole entry): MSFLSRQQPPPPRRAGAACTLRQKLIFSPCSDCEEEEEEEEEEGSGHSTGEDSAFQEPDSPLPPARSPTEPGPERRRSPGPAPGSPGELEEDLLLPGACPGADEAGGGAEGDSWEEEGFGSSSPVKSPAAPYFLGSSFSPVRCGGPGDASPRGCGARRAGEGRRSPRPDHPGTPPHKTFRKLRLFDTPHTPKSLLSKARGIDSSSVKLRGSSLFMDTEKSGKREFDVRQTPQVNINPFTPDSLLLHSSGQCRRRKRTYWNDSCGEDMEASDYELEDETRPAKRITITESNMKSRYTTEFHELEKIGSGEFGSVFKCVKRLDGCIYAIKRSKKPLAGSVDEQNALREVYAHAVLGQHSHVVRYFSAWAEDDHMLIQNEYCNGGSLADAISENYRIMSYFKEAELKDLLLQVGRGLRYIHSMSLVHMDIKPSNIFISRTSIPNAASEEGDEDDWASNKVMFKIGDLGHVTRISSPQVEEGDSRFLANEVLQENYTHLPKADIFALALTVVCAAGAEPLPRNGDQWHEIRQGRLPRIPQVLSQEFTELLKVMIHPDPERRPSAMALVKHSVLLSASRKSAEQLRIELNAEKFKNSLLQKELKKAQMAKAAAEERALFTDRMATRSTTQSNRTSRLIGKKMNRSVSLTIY

SMILES | Selectivity ratio KYSE30 Gl50 vs. OVCAR3 Gl50 (OVCAR 3 cells) | IC50 (WEE1; WEE1 15 nM, banded values) [nM] | PKMYT1 vs. WEE1 selectivity (WEE1; banded) | IC50 (Human PKMYT1; [1]) [nM] | GI50 (KYSE-30 cells) [nM] | IC50 (WEE1; [2]) [nM] | PKMYT1 vs. WEE1 selectivity (WEE1; [3]) | IC50 (Human PKMYT1; [4]) [nM]
CCN(CC(F)(F)F)C(=O)Cn1cc(C)c(Nc2ncc(C(=O)Nc3c(C)ccc(O)c3C)s2)n1 [BAA-502, 2-((1-(2-(ethyl(2,2,2-trifluoroethyl)amino)-2-oxoethyl)-4-methyl-1H-pyrazol-3-yl)amino)-N-(3-hydroxy-2,6-dimethylphenyl)thiazole-5-carboxamide] | Y (>20 fold) | 1000 to 11000 | X (100-<1000 fold) | < 50 | > 5000 |  |  | 
Cc1cn(-c2cn(C)nc2C)nc1Nc1ncc(C(=O)Nc2c(C)ccc(O)c2C)s1 [BAA-392, N-(3-hydroxy-2,6-dimethylphenyl)-2-((1′, 3′,4-trimethyl-1′H-[1,4′-bipyrazol]-3-yl)amino)thiazole-5-carboxamide] | Y (>20 fold) |  |  |  | > 5000 | 1000 to 11000 | X (100-<1000 fold) | < 50
Cc1ccc(O)c(C)c1NC(=O)c1cnc(Nc2cc(C)n(C(C)C)n2)s1 [BAA-233, N-(3-hydroxy-2,6-dimethylphenyl)-2-((1-isopropyl-5-methyl-1H-pyrazol-3-yl)amino)thiazole-5-carboxamide] | Y (>20 fold) |  |  |  | > 5000 | 50 to 1000 | W (10-<100 fold) | < 50
Cc1ccc(O)c(C)c1NC(=O)c1cnc(Nc2cc(C)n(CC(C)C)n2)s1 [BAA-237, N-(3-hydroxy-2,6-dimethylphenyl)-2-((1-isobutyl-5-methyl-1H-pyrazol-3-yl)amino)thiazole-5-carboxamide] | Y (>20 fold) |  |  |  | 500 to 5000 | 1000 to 11000 | W (10-<100 fold) | < 50
Cc1cc(Nc2ncc(C(=O)Nc3c(C)ccc(O)c3C)s2)nc(-c2ccc(F)cc2)n1 [BAA-307, 2-((2-(4-fluorophenyl)-6-methylpyrimidin-4-yl)amino)-N-(3-hydroxy-2,6-dimethylphenyl)thiazole-5-carboxamide] | Y (>20 fold) |  |  |  | 500 to 5000 | > 11000 | Y (1000-5000 fold) | 50 to 1000
Cc1cn(-c2scnc2C)nc1Nc1ncc(C(=O)Nc2c(C)ccc(O)c2C)s1 [BAA-386, N-(3-hydroxy-2,6-dimethylphenyl)-2-((4-methyl-1-(4-methylthiazol-5-yl)-1H-pyrazol-3-yl)amino)thiazole-5-carboxamide] | Y (>20 fold) |  |  |  | > 5000 | 1000 to 11000 | X (100-<1000 fold) | < 50
Cc1ccc(O)c(C)c1NC(=O)c1cnc(Nc2cccc(OC(C)C)n2)s1 [BAA-429, N-(3-hydroxy-2,6-dimethylphenyl)-2-((6-isopropoxypyridin-2-yl)amino)thiazole-5-carboxamide] | Y (>20 fold) | > 11000 | X (100-<1000 fold) | < 50 | < 500 |  |  | 
Cc1ccc(NC(=O)OC(C)(C)C)nc1Nc1ncc(C(=O)Nc2c(C)ccc(O)c2C)s1 [BAA-329, tert-butyl (6-((5-((3-hydroxy-2,6-dimethylphenyl)carbamoyl)thiazol-2-yl)amino)-5-methylpyridin-2-yl)carbamate] | X (3-20 fold) |  |  |  | 500 to 5000 | > 11000 | Y (1000-5000 fold) | 50 to 1000
Cc1ccc(O)c(C)c1NC(=O)c1cnc(Nc2nn(CCBr)cc2Cl)s1 [BAA-574, 2-((1-(2-Bromoethyl)-4-chloro-1H-pyrazol-3-yl)amino)-N-(3-hydroxy-2,6-dimethylphenyl)thiazole-5-carboxamide] | X (3-20 fold) | 1000 to 11000 | W (10-<100 fold) | < 50 | 500 to 5000 |  |  | 
Cc1ccc(O)c(C)c1NC(=O)c1cnc(Nc2ccn(C(C)C(=O)N3CCCC3)n2)s1 (stereo not shown) [BAA-506, N-(3-Hydroxy-2.6-dimethylphenyl)-2-((1-(1-oxo-1-(pyrrolidin-1-yl)propan-2-yl)-1H-pyrazol-3-yl)amino)thiazole-5-carboxamide] | Y (>20 fold) | 1000 to 11000 | X (100-<1000 fold) | < 50 | > 5000 |  |  | 
CCCn1nc(Nc2ncc(C(=O)Nc3c(C)ccc(O)c3C)s2)c2ccccc21 [BAA-460, N-(3-hydroxy-2,6-dimethylphenyl)-2-((1-propyl-1H-indazol-3-yl)amino)thiazole-5-carboxamide] | Y (>20 fold) | 1000 to 11000 | X (100-<1000 fold) | 50 to 1000 | 500 to 5000 |  |  | 
Cc1cn(-c2cc(Cl)cnc2F)nc1Nc1ncc(C(=O)Nc2c(C)ccc(O)c2C)s1 [BAA-377, 2-((1-(5-chloro-2-fluoropyridin-3-yl)-4-methyl-1H-pyrazol-3-yl)amino)-N-(3-hydroxy-2,6-dimethylphenyl)thiazole-5-carboxamide] | X (3-20 fold) |  |  |  | 500 to 5000 | 1000 to 11000 | W (10-<100 fold) | 50 to 1000
Cc1cn(CC(=O)N2CCC(C)C2)nc1Nc1ncc(C(=O)Nc2c(C)ccc(O)c2C)s1 (stereo not shown) [BAA-497, N-(3-hydroxy-2,6-dimethylphenyl)-2-((4-methyl-1-(2-(3-methylpyrrolidin-1-yl)-2-oxoethyl)-1H-pyrazol-3-yl)amino)thiazole-5-carboxamide] | Y (>20 fold) | 1000 to 11000 | X (100-<1000 fold) | < 50 | > 5000 |  |  | 
Cc1ccc(O)c(C)c1NC(=O)c1cnc(Nc2ccn(CC(C)(C)O)n2)s1 [BAA-038] | Y (>20 fold) |  |  |  | > 5000 | 1000 to 11000 | X (100-<1000 fold) | < 50
CCn1nc(Nc2ncc(C(=O)Nc3c(C)ccc(O)c3C)s2)cc1C [BAA-495, 2-((1-ethyl-5-methyl-1H-pyrazol-3-yl)amino)-N-(3-hydroxy-2,6-dimethylphenyl)thiazole-5-carboxamide] | Y (>20 fold) | 1000 to 11000 | W (10-<100 fold) | 50 to 1000 | > 5000 |  |  | 
Cc1cn(CC(C)O)nc1Nc1ncc(C(=O)Nc2c(C)ccc(O)c2C)s1 (stereo not shown) [BAA-499, N-(3-hydroxy-2,6-dimethylphenyl)-2-((1-(2-hydroxypropyl)-4-methyl-1H-pyrazol-3-yl)amino)thiazole-5-carboxamide] | Y (>20 fold) | 1000 to 11000 | X (100-<1000 fold) | < 50 | > 5000 |  |  | 
CCOc1ccc(-n2cc(C)c(Nc3ncc(C(=O)Nc4c(C)ccc(O)c4C)s3)n2)cn1 [BAA-369, 2-((1-(6-ethoxypyridin-3-yl)-4-methyl-1H-pyrazol-3-yl)amino)-N-(3-hydroxy-2,6-dimethylphenyl)thiazole-5-carboxamide] | Y (>20 fold) |  |  |  | > 5000 | > 11000 | X (100-<1000 fold) | 50 to 1000
